How the values were obtained:
caspase-1 = target: T1, caspase-1 (Homo sapiens, UniProt P29466); experiment: Caspase-1 assay using HMC-1 cell extracts; format: cell-based
T1 construct: a caspase-1 assay was conducted using cell extracts; endogenous in cells; host or cells: HMC-1 (human mast cells)
T1 sequence (P29466 120-297 limits assumed): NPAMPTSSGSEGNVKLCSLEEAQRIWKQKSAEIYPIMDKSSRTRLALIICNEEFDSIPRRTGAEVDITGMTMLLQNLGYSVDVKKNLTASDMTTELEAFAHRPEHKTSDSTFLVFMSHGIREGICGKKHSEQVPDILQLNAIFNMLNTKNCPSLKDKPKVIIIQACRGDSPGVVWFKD
T1 sequence (P29466 317-404 limits assumed): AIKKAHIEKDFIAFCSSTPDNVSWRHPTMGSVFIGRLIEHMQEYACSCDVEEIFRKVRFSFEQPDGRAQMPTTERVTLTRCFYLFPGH

[1] = target: T2, human recombinant caspase-1 (Homo sapiens, UniProt P29466); experiment: Recombinant caspase-1 activity assay (kit); format: biochemical; conditions: caspase-1 assay kit
T2 sequence (P29466 120-404): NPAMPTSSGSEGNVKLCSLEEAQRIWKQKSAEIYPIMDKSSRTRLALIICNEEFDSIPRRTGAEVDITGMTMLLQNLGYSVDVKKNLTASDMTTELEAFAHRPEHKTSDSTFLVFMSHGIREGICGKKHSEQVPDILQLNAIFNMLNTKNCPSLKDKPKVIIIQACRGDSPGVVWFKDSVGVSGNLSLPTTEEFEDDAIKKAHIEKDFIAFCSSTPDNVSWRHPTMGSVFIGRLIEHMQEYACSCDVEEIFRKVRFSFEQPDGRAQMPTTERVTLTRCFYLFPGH
Procedure: (4) Caspase-1 assay: Recombinant caspase-1 and a drug were allowed to react, and then activity measurement was performed using a caspase-1 assay kit (R&D Systems Inc., Minneapolis, Minn., USA).
Recombinant caspase-1 and a drug were allowed to react, and then activity was measured using a caspase-1 assay kit (R&D Systems Inc., Minneapolis, Minn., USA).

[2] = system: IL-6, IL-22, IL-33 cytokine proteins; experiment: Cytokine & chemokine antibody microarray protein chip of DNCB skin tissue; format: in vivo, balb/c mice; conditions: 1% DNCB and 1 μM vs DNCB only; within threshold 1±0.1
Excerpt: A. Preparation of tissue samples: The mouse skin tissue was frozen in liquid nitrogen and then finely ground in a mortar. Liquid nitrogen was intermittently added to prevent the tissue from being thawed. The finely ground skin tissue was placed in lysis M buffer to prepare a tissue sample lysate.
B. Fluorescent labeling of tissue lysates: Proteins were extracted from each of the tissue lysate treated with the sample for a certain period of time and an untreated tissue lysate (Lysis M extraction solution, Roche) and labeled with a fluorescent material (Cy3 or Cy5) (GE Healthcare). First, the amount of protein from each tissue lysate was adjusted to be at least 1 mg, and then coupling buffer (0.1M sodium carbonate buffer, pH 9.3) was added and mixed well. Cy3 and Cy5 dyes were added to each tissue lysate to which the coupling buffer had been added and mixed well for labeling at 4° C. for 16 hours. A control treated only with DNCB was labeled with Cy3 and Cy5, and the experimental groups treated with the sample were also labeled with Cy3 and Cy5. After labeling with the fluorescent dyes, free dyes were removed using a Post-reactive Spin column (Sigma).
C. Fabrication of antibody microarrays: ProteoChip™ (Proteogen, Inc., Seoul, Korea) was used as a protein chip, and antibody microarrays were fabricated by spotting antibodies against 26 proteins in cells on a substrate immobilized with 200 μg/ml of protein A on the ProteoChip™. First, the antibodies were diluted to 100 μg/ml with phosphate buffer containing 30% glycerol and the antibody arrays were fixed overnight at 4° C. […]
D. Hybridization of antibody arrays: Tissue lysates labeled with fluorescent materials were quantified (Bradford method), and 30 μg of each fluorescently labeled samples were mixed in 10 ml of a reaction solution. […] Each slide was analyzed using a fluorescent microarray scanner. […] The ratio of Cy5 to Cy3 in each spot was calculated using a software (Genepix 6.0). The INR values were calculated by sample-Cy5/control-Cy3×sample-Cy3/control-Cy5. […]

IL-6, IL-22, IL-33 = experiment: Western blotting of cytokines in DNCB skin tissue lysates; format: in vivo, balb/c mice; conditions: changed slightly
Procedure: E. Western blotting analysis: Western blotting analysis was performed to verify differences in protein expression in the above antibody array experiment. Proteins from the tissue lysates were separated on SDS-PAGE. The electrophoresed proteins were then transferred onto the PVDF membranes. After washing with PBST solution, the PVDF membranes were blocked with 5% skim milk powder for 1 hour and then reacted with a primary antibody overnight at 4° C. The membranes were washed with PBST solution and reacted with a secondary antibody (anti-IgG) conjugated with horseradish peroxidase (HRP) for 1 hour at room temperature and examined with a photoresist film.

SMILES: Cl.N=C(N)NC(=N)Nc1ccc(Cl)cc1 [IPS-07001]
- caspase-1 activity in HMC-1 cells (caspase-1): significantly inhibited
- recombinant caspase-1 activity [1]: significantly inhibited
- IL-6 protein expression (antibody chip, INR) [2]: decrease
- IL-22 protein expression (antibody chip, INR) [2]: decrease
- IL-33 protein expression (antibody chip, INR) [2]: decrease
- IL-6 protein expression (western blotting) (IL-6, IL-22, IL-33): decreased
- IL-22 protein expression (western blotting) (IL-6, IL-22, IL-33): decreased
- IL-33 protein expression (western blotting) (IL-6, IL-22, IL-33): decreased

Source: US10278931B2, “Composition for treatment of inflammatory bowel disease and atopic dermatitis” (INNOPHARMASCREEN INC., priority 2015, dated 2019)
